The results in this text go back to patent publication US9005963B2, “Amino acid sequences directed against cellular receptors for viruses and bacteria” (Ablynx N.V., priority 2008, dated 2015).

For test [1], the system named is X4 HIV-1 NL4.3. The test is described as follows: HIV-1 infection assay MT-4/NL4.3 (cytopathic effect, MTS). Format: cell-based. The note with it: Human immunodeficiency virus 1; MT-4/NL4.3 exp. 1. For orientation: Damage to the host cells serves as the signal in cytopathic effect assays.
For test [2], the system named is X4 HIV-1 NL4.3. The test is described as follows: HIV-1 infection assay PBMC/NL4.3 (p24 Ag ELISA). As to conditions: Human immunodeficiency virus 1, PBMC. Format: cell-based. As for the experimental part: (§1) The CXCR4-using (X4) HIV-1 molecular clone NL4.3 was obtained from the National Institutes of Health NIAID AIDS Reagent program (Bethesda, Md.), the CCR5-using (R5) HIV-1 strain BaL was obtained from the Medical Research Council AIDS reagent project (Herts, UK). […] The MT-4 cells were seeded out in 96-well plate and the U87 cells in 24-well plates. The test compounds were added at different concentrations together with HIV-1 and the plates were maintained at 37° C. in 10% CO2. Cytopathic effect induced by the virus was monitored by daily microscopic evaluation of the virus-infected cell cultures. […] The absorbance was then measured spectrophotometrically at 490 nm with a 96-well plate reader (Molecular Devices, Sunnyvale, Calif.) and compared with four cell control replicates (cells without virus and drugs) and four virus control wells (virus-infected cells without drugs).
(§2) Peripheral blood mononuclear cells (PBMCs) from healthy donors were isolated by density centrifugation (Lymphoprep; Nycomed Pharma, AS Diagnostics, Oslo, Norway) and stimulated with phytohemagglutin (PHA) (Sigma Chemical Co., Bornem Belgium) for 3 days. The activated cells (PHA-stimulated blasts) were washed with PBS and viral infections were performed as described previously (Schols D, Struyf S, Van Damme J, Este J A, Henson G, De Clercq E. Inhibition of T-tropic HIV strains by selective antagonization of the chemokine receptor CXCR4. J Exp Med 1997; 186:1383-1388). At 8-10 days after the start of the infection, viral p24 Ag was detected in the culture supernatant by an enzyme-linked immunosorbent assay (Perkin Elmer, Brussels, Belgium).
(§3) The anti-HIV-1 potencies of NANOBODIES on the X4 HIV-1 clone NL4.3 or primary virus strains UG270 (X4, Clade D), CI#17 (X4, clade B), the R5 HIV-1 strain BaL or the R5/X4 HIV-1 HE strain in MT-4, U87.CD4.CXCR4, U87.CD4.CCR5 and/or phytohemagglutin-stimulated PBMCs from different donors were determined by measuring the cytopathic effect of HIV-1 (in MT-4 and U87 cell lines) microscopically and by tetrazolium-based colorimetric evaluation or by quantification of the viral p24 antigen production in the culture supernatant (PBMCs) as described in detail. Primary virus strains were grown 1 or 2 times in PBMC only.
Peripheral blood mononuclear cells (PBMCs) from healthy donors were isolated by density centrifugation (Lymphoprep; Nycomed Pharma, AS Diagnostics, Oslo, Norway) and stimulated with phytohemagglutin for 3 days. […] At 8-10 days after the start of the infection, viral p24 Ag was detected in the culture supernatant by an enzyme-linked immunosorbent assay (Perkin Elmer, Brussels, Belgium).
Background: An ELISA detects its analyte on a solid surface through an enzyme-linked reagent.

In test [3] the test system is HIV-1 UG270 (X4, Clade D). The test is described as follows: HIV-1 infection assay PBMC/primary isolate UG270 (p24 Ag ELISA). Type of test: cell-based. As to conditions: Human immunodeficiency virus 1, PBMC. As for the experimental part: as §3
as §2, with “phytohemagglutin” for “phytohemagglutin (PHA) (Sigma Chemical Co., Bornem Belgium)”, “cells” for “cells (PHA-stimulated blasts)”, “et al. (1997)” for “Struyf S, Van Damme J, Este J A, Henson G, De Clercq E.”, “Med” for “Med 1997;”

For test [4], the system named is HIV-1 CI#17 (X4, clade B). The test is described as follows: HIV-1 infection assay PBMC/primary isolate CI#17 (p24 Ag ELISA). Format: cell-based. The note with it: Human immunodeficiency virus 1, PBMC. As to the method:
as §3
as §2, with “phytohemagglutin” for “phytohemagglutin (PHA) (Sigma Chemical Co., Bornem Belgium)”, “cells” for “cells (PHA-stimulated blasts)”, “et al. (1997)” for “Struyf S, Van Damme J, Este J A, Henson G, De Clercq E.”, “Med” for “Med 1997;”

For test [5], the target named is T1, CXCR4 (Homo sapiens, UniProt P61073). The note with it: 3 μM; control experiment; membranes from HEK293T cells transiently expressing CXCR4.
T1 sequence (P61073 whole entry): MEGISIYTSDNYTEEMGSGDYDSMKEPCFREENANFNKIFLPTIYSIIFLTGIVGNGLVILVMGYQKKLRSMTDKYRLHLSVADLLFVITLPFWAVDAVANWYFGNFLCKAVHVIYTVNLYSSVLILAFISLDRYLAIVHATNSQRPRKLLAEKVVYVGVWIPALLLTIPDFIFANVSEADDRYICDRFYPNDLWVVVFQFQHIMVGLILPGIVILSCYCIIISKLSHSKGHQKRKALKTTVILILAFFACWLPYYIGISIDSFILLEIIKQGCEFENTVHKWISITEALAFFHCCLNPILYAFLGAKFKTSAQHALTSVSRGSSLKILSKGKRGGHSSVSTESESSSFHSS
Test [6] has as its target T1, CXCR4. Put plainly: Competition binding with [125I]-CXCL12 on membranes from HEK293T cells transiently expressing CXCR4. Details: expressed in transfected cells; host or cells: HEK293T, transient (pcDNA3.1-CXCR4). As to conditions: maximal displacement; a: no significant displacement at 0.5 μM; b/c(B-6): maximum not reached, displacement at 0.5 μM. As for the experimental part:
(§4) Membranes from HEK293T cells transiently expressing CXCR3 or CXCR4 were prepared 48 h after transfection as follows. Cells were washed and scraped from the cell culture dishes with ice-cold PBS containing 1 mm EDTA. The scraped cells were pelleted at 1500×g for 10 min at 4° C. The pellet was washed and then resuspended in ice-cold membrane buffer (15 mM Tris, pH 7.5, 1 mM EGTA, 0.3 mM EDTA, and 2 mM MgCl2). The cell suspension was homogenized by 10 strokes at 1200 rpm using a Teflon-glass homogenizer and rotor and further subjected to three freeze-thaw cycles using liquid nitrogen. Membranes were separated by centrifugation at 40,000 g for 25 min at 4° C. The membrane pellet was washed and resuspended in ice-cold Tris-sucrose buffer (20 mM Tris, pH 7.4, and 250 mM sucrose) and frozen in liquid nitrogen. The total protein was determined using a Bradford assay (Bio-Rad).
Membranes were then harvested over polyethylenimine (0.5%)-treated Whatman GF/C filter plates and washed three times with ice cold binding buffer containing 500 mM NaCl. Plates were counted by liquid scintillation. […]

For test [7], the target named is T1, CXCR4. The test is described as follows: Competition binding with [125I]-238D2 on membranes from HEK293T cells transiently expressing CXCR4. Details: expressed in transfected cells; host or cells: HEK293T, transient (pcDNA3.1-CXCR4). As to the method: as §4
(§5) Membranes were then harvested over polyethylenimine (0.5%)-treated Whatman GF/C filter plates and washed three times with ice cold binding buffer containing 500 mM NaCl. Plates were counted by liquid scintillation.

In test [8] the target is T1, CXCR4. Put plainly: Competition binding with [125I]-238D4 on membranes from HEK293T cells transiently expressing CXCR4. Details: expressed in transfected cells; host or cells: HEK293T, transient (pcDNA3.1-CXCR4). As to the method:
as §4, §5

Test [9] relates to R5 HIV-1 BaL. Put plainly: HIV-1 infection assay PBMC/BaL (p24 Ag ELISA). Type of test: cell-based. As to the method:
as §1, §2, §3
as §2, with “phytohemagglutin” for “phytohemagglutin (PHA) (Sigma Chemical Co., Bornem Belgium)”, “cells” for “cells (PHA-stimulated blasts)”, “et al. (1997)” for “Struyf S, Van Damme J, Este J A, Henson G, De Clercq E.”, “Med” for “Med 1997;”

Test [10] concerns R5 HIV-1 BaL. Put plainly: HIV-1 infection assay U87.CD4.CCR5/BaL (MTS). Format: cell-based. The note with it: read-out: Anti-HIV-1 activity (IC50).
The target of test [11] is T1, CXCR4. Put plainly: Binding of 125I-labeled Nanobodies to membranes from HEK293T cells expressing CXCR4 compared to CXCR3. Details: expressed in transfected cells; host or cells: HEK293T, transient (pcDNA3.1-CXCR4). As to the method:
as §4
Periplasmas (1:10) or ligands were pre-incubated with membranes in binding buffer (50 mM HEPES (pH 7.4), 1 mM CaCl2, 5 mM MgCl2, 100 mM NaCl, 0.5% bovine serum albumin) supplemented with 0.5% BSA for 1 h at 22° C. before the addition of [^125I]-CXCL12 (40 pM) or [^125I]-238D2 (3 nM) or [^125I]-238D4 (3 nM) for additional 2 h at 22° C. […] Plates were counted by liquid scintillation.

Where [12] appears, read: 238C5 only at high concentrations (≧100 nM).
[13] abbreviates: maximal displacement, a: no significant displacement at 0.5 μM, b: displacement at 0.5 μM.

Converted amounts (≈) assume the structure as drawn.

Regarding `c1cc(CN2CCCNCCNCCCNCC2)ccc1CN1CCCNCCNCCCNCC1` [AMD3100], the IC50 – broadly, the concentration that gives 50% inhibition – in the test with X4 HIV-1 NL4.3 [1] was 0.0064 µg/mL (≈ 0.0127 µM); with X4 HIV-1 NL4.3 [2] (PBMC + NL4.3 donor 1), 0.0011 µg/mL; with X4 HIV-1 NL4.3 [2] (PBMC + NL4.3 donor 2), greater than 0.04 µg/mL; in [3] (PBMC + UG270 donor 1), 0.0036 µg/mL; in test [3] (PBMC + UG270 donor 2), 0.0179 µg/mL; in [4] (PBMC + CI#17 donor 1) it was 0.0121 µg/mL. Also, the IC50 in test [4] (PBMC + CI#17 donor 2) amounted to 0.0149 µg/mL. Also, the IC90 (usually the point of the concentration-response curve where the effect stands at 90%) with X4 HIV-1 NL4.3 [1] is greater than 0.04 µg/mL; in the test on X4 HIV-1 NL4.3 [2] (PBMC + NL4.3 donor 1), 0.0099 µg/mL; in the test with X4 HIV-1 NL4.3 [2] (PBMC + NL4.3 donor 2), greater than 0.04 µg/mL; in test [3] (PBMC + UG270 donor 1), 0.0154 µg/mL; in test [3] (PBMC + UG270 donor 2), 0.0341 µg/mL; in [4] (PBMC + CI#17 donor 1), greater than 0.04 µg/mL. In addition, the IC90 in test [4] (PBMC + CI#17 donor 2) came to 0.0379 µg/mL. Also, the “displacement of [125I]-CXCL12” value at CXCR4 [5] is “full”. In addition, the “Displacem. (%) of [125I]-CXCL12” value on CXCR4 [6] is recorded as 94 ± 2%. The “displacement of [125I]-238D2 (in words)” value on CXCR4 [7] (setting [12]) is given as “displaced”. Moreover, the “Displacem. (%) of [125I]-238D2” value on CXCR4 [7] (setting [13]) stood at 102 ± 1%. In addition, at CXCR4 [8] (setting [12]), the “displacement of [125I]-238D4 (in words)” value is on record as “displaced”. In addition, on CXCR4 [8] (setting [13]), the “Displacem. (%) of [125I]-238D4” value worked out at 99 ± 4%.

Regarding maraviroc, the “IC50” value came out at 0.0015 µg/mL in the test on R5 HIV-1 BaL [9] (PBMC + BaL donor 1); 0.0008 µg/mL with R5 HIV-1 BaL [9] (PBMC + BaL donor 2); 3.13 nM with R5 HIV-1 BaL [9] (read-out: Anti-HIV-1 activity (IC50), PBMC/BaL); 0.72 nM in the test with R5 HIV-1 BaL [10]. The “IC90” value in the test with R5 HIV-1 BaL [9] (PBMC + BaL donor 1) was found to be 0.0273 µg/mL; in the test on R5 HIV-1 BaL [9] (PBMC + BaL donor 2), 0.0131 µg/mL.

B1: [^125I]-238D4: 125I-labeled NANOBODY 238D4 for competition binding studies (protein)
VHH: EVQLMESGGGLVQAGGSLRLSCAASGRTFNNYAMGWFRRAPGKEREFVAAITRSGVRSGVSAIYGDSVKDRFTISRDNAKNTLYLQMNSLKPEDTAVYTCAASAIGSGALRRFEYDYSGQGTQVTVSS
B1: in the test with CXCR4 [11], the “binding to CXCR4 membranes compared to CXCR3 membranes” value was “selectively bound”.
